Results on three molecules are retold here after patent publication US10208082B2, “Sustained-release pharmaceutical composition for treatment and prevention of eye disease” (Daiichi Sankyo Company, Limited, priority 2014, dated 2019).

One series concerns NQO1. The series can be described thus: NQO1 assay in Hepa1c1c7 cells. It counts as cell-based, mouse. The conditions noted are these: approximately 48 hours culture, mean of 3 wells. The method, then: Hepa1c1c7 cells (mouse hepatic cell line, ATCC, catalog No. CRL-2026) were cultured (5% CO2, 37° C.). A DMEM (Life Technologies Japan Ltd., catalog No. 11965-092) medium also containing 10% inactivated FBS was used. The medium contained 100 units/mL (final concentration) penicillin and […] (final concentration) streptomycin. The NQO1 assay was conducted according to previous reports (Anal Biochem 1998; 169: 328; and Methods Enzymol 2004; 382: 243).
The Hepa1c1c7 cells were seeded at 10000 cells/well in a 96-well plate. Approximately 24 hours later, the medium was replaced with a medium containing terpenoid derivative (III), terpenoid derivative (I), or terpenoid derivative (II), and the culture was further performed for approximately 48 hours. A lysis solution (a solution containing 2 mM EDTA and 0.8% digitonin), a reaction solution (a solution containing 0.025 M of tris-HCl, 0.067% of albumin, 0.01% of Tween-20, 2 U/mL of glucose-6-phosphate dehydrogenase, 5 μM of flavin adenine dinucleotide, 1 […], 30 μM of nicotinamide adenine dinucleotide phosphate, 0.03% of 3-(4, 5-dimethyl-2-thiazolyl)-2,5-diphenyltetrazolium bromide (MTT), and 50 μM of menadione), and a stop solution (a solution containing 0.3 mM dicumarol and 5 mM potassium dihydrogen phosphate, pH 7.4) were prepared. After removal of the medium, 50 μL of the lysis solution was added thereto, and the mixture was left standing at 37° C. for 10 minutes. The reaction mixture was further shaken at room temperature for 10 minutes.
Two hundred uL of the solution was added thereto, and the mixture was left standing at room temperature for 5 minutes. Fifty μL of the stop solution was added thereto, and the absorbance at 490 nm was measured.
The test results were analyzed using Prism (GraphPad Software, Inc., Ver. 5) to calculate the CD value (concentration of double NQO1 activity) of the concentration at which the activity of NQO1 was increased 2-fold. Each group consisted of 3 wells and indicated as a mean of CD values. […]

Series [1] can be described thus: Pharmacokinetic test of microspheres containing terpenoid derivative (III) in rabbit eye. In kind it is in vivo. The conditions noted are these: male, Kbl:NZW (white rabbit), intravitreal fluid, other: intravitreal, mean of 4 eyes and SD. The method, then: Suspensions were prepared using each of terpenoid derivative (III) of the present invention, terpenoid derivative (III) of the present invention-PLA-0005 [prepared by using PLA-0005 as the base material and adjusting the mixing ratio of terpenoid derivative (III) of the present invention and PLA-0005 to 1:9], and terpenoid derivative (III) of the present invention-PLA-0020 [prepared by using PLA-0020 as the base material and adjusting the mixing ratio of terpenoid derivative (III) of the present invention and PLA-0020 to 1:9], and saline as a solvent such that the concentration of terpenoid derivative (III) was 3 mM.
50 μL each of the suspensions was intravitreally administered to each white rabbit (Oriental Yeast Co., Ltd., Kbl:NZW, male, 8 weeks old). After the intravitreal administration, the rabbit was euthanized, and the intravitreal fluid and the retina were sampled. The concentration of terpenoid derivative (III) contained in these samples was measured. The numeric values shown in Table 12 below are indicated by a mean from 4 eyes and standard deviation. The drug concentration in each tissue was measured by LC/MS/MS. The tissue was pretreated by dilution with purified water in an amount corresponding to 10 times the weight of the tissue and subsequent homogenization to obtain a measurement sample. A water/acetonitrile (1:1) solution containing an internal standard solution (IS; niflumic acid) was added to the obtained sample to extract the drug. Then, the solution was filtered through a filter and injected to LC/MS/MS.
The LC/MS/MS conditions were as follows: • <UPLC conditions>: Waters Acquity UPLC • analysis column: ACQUITY UPLC BEH C18 1.7 μm • column temperature: 50° C. • mobile phase A: 95% acetonitrile (5 mM ammonium acetate) • mobile phase B: 5% acetonitrile (5 mM ammonium acetate).
• <MS/MS conditions>: analysis apparatus API4000 • Ionization mode: ESI • Ion polarity mode: Positive • Monitor Ion • terpenoid derivative (III) (Precursor ion (m/z): 538.5, Product ion (m/z): 460) • IS (Precursor ion (m/z): 283.2, Product ion (m/z): 265).

Molecules are shown by their SMILES.

Turning to `COC(=O)[C@@]12CC[C@]3(C)[C@H](C(=O)C=C4[C@@]5(C)C=C(C#N)C(=O)C(C)(C)[C@@H]5CC[C@]43C)[C@@H]1CC(C)(C)[C@@H](O)C2` [terpenoid derivative (I)], in the series on NQO1, the “CD value (concentration of double NQO1 activity)” value (from here on “CD value”) was 0.3 nM.
As to `COC(=O)[C@@]12CC[C@]3(C)[C@H](C(=O)C=C4[C@@]5(C)[C@H]6O[C@@]6(C#N)C(=O)C(C)(C)[C@@H]5CC[C@]43C)[C@@H]1CC(C)(C)[C@@H](O)C2` [terpenoid derivative (III)], the “CD value” value in the series on NQO1 is 1.0 nM. This molecule also showed a concentration at 1 day in series [1] (Day 1, intravitreal 50 μL of 3 mM suspension) of 79700 ± 22100 nM. For the same molecule, in series [1] (Day 2, intravitreal 50 μL of 3 mM suspension), the concentration at 2 day turned out to be 0.1 nM. Moreover, the concentration at 7 day in series [1] (Day 7, intravitreal 50 μL of 3 mM suspension) is 0.1 nM.
Regarding `COC(=O)[C@@]12CC[C@]3(C)[C@H](C(=O)C=C4[C@@]5(C)[C@H]6O[C@@]6(C#N)C(=O)C(C)(C)[C@@H]5CC[C@]43C)[C@@H]1CC(C)(C)[C@H](O)C2` [terpenoid derivative (II)], in the series on NQO1, the “CD value” value is reported as 0.1 nM.
